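The compound was tested at five concentrations on cells cultured in 96-well plates, with a 48-hour exposure period. TGI: total growth inhibition.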
Experiments:
Experiment in all cases: NCI tumour cell line growth inhibition, 48 h
[1] = system: DU-145 prostate
[2] = system: SNB-75 CNS
[3] = system: PC-3 prostate
[4] = system: MALME-3M melanoma
[5] = system: HOP-62 NSCLC
[6] = system: CCRF-CEM leukemia
[7] = system: HCT-116 colon
[8] = system: KM12 colon
[9] = system: MDA-N
[10] = system: RPMI-8226 leukemia
[11] = system: A498 renal
[12] = system: NCI-H226 lung
[13] = system: TK-10 renal
[14] = system: SN12C renal
[15] = system: HL-60(TB) leukemia
[16] = system: MOLT-4 leukemia
[17] = system: MDA-MB-435
[18] = system: BT-549 breast
[19] = system: OVCAR-8 ovarian
[20] = system: HT29 colon
[21] = system: SK-MEL-2 melanoma
[22] = system: SF-295 CNS
[23] = system: CAKI-1 renal
[24] = system: OVCAR-4 ovarian
[25] = system: HCT-15 colon
[26] = system: HS 578T breast
[27] = system: COLO 205 colon
[28] = system: SK-MEL-28 melanoma
[29] = system: HOP-92 NSCLC
[30] = system: OVCAR-5 ovarian
[31] = system: HCC-2998 colon
[32] = system: SNB-19 CNS
[33] = system: UO-31 renal
[34] = system: T-47D breast
[35] = system: RXF 393 renal
[36] = system: SW-620 colon
[37] = system: SK-MEL-5 melanoma
[38] = system: SR leukemia
[39] = system: IGROV1 ovarian
[40] = system: M14 melanoma
[41] = system: LOX IMVI melanoma
[42] = system: U251 CNS
[43] = system: NCI-H460 lung
[44] = system: K-562 leukemia
[45] = system: UACC-257 melanoma
[46] = system: SK-OV-3 ovarian
[47] = system: NCI/ADR-RES ovarian
[48] = system: OVCAR-3 ovarian
[49] = system: MCF7 breast
[50] = system: NCI-H23 lung
[51] = system: UACC-62 melanoma

Measured: TGI

O=C(O)C(=C\c1ccc2c(c1)OCO2)/C(=C/c1ccc2c(c1)OCO2)C(=O)O
> 100 µM: all assays above

From PubChem BioAssay (NCI)
